# Source: patent publication US10150740B2, “6,7-dihydropyrido[2,1-A]phthalazin-2-ones for the treatment and prophylaxis of hepatitis B virus infection” (priority 2015, dated 2018)
# pIC50: −log10 of the molar value. Counter-ions that a name gives are not always drawn.
# Test system: HBsAg
# Assay: cells
# Conditions: Hepatitis B virus, HepG2.2.15, read-out: IC50 (HBsAg secretion)
# Description: HepG2.2.15 cells (Acs et al. Proc Natl Acad Sci USA, 84, (1987), 4641-4), a constitutively HBV-expressing cell line were cultured in DMEM+Glutamax-I medium (Invitrogen, Carlsbad, Calif., USA), supplemented with 10% fetal bovine serum (Invitrogen) and G418 (Invitrogen) at a final concentration of 200 mg/L and maintained in 5% CO2 at 37° C.
# HepG2.2.15 cells were seeded in duplicate into white, 96-well plates at 1.5×10^4 cells/well. The cells were treated with a three-fold serial dilution series of the compounds in DMSO. The final DMSO concentration in all wells was 1% and DMSO was used as no drug control.
# The HBsAg chemiluminescence immunoassay (CLIA) kit (Autobio Diagnostics Co., Zhengzhou, China, Catalog number: CL0310-2) was used to measure the levels of secreted HBV antigens semi-quantitatively. For the detection 50 μL/well culture supernatant was used and HBsAg was quantified using HBsAg chemiluminescence immunoassay (CLIA) kit (Autobio Diagnostics Co., Zhengzhou, China, Catalog number: CL0310-2), 50 μL of the supernatant was transferred to the CLIA assay plate and 50 μL of enzyme conjugate reagent was added into each well. The plates were sealed and gently agitated for 1 hour at room temperature. The supernatant-enzyme-mixture was discarded and wells were washed 6 times with 300 μL of PBS. The residual liquid was removed by plating the CLIA plate right side down on absorbent tissue paper. 25 μL of substrates A and B were added to each well. Luminance was measured using a luminometer (Mithras LB 940 Multimode Microplate Reader) after 10 minutes incubation. Dose-response curves were generated and the IC50 value was extrapolated by using the E-WorkBook Suite (ID Business Solutions Ltd., Guildford, UK). The IC50 was defined as the compound concentration (or conditioned media log dilution) at which HBsAg secretion was reduced by 50% compared to the no drug control.
row,SMILES,pIC50
1,"COc1cc2c(cc1OC)-c1cc(=O)c(C(=O)O)cn1N(C)C2 [Example 2, 9,10-Dimethoxy-6-methyl-2-oxo-7H-pyrido[2,1-a]phthalazine-3-carboxylic acid]",5.60
2,"COc1cc2c(cc1OC)-c1cc(=O)c(C(=O)O)cn1N(C(C)C)C2 [Example 4, 6-Isopropyl-9,10-dimethoxy-2-oxo-7H-pyrido[2,1-a]phthalazine-3-carboxylic acid]",4.58
3,"COc1cc2c(cc1OCCCC#N)CN(CC(C)C)n1cc(C(=O)O)c(=O)cc1-2 [Example 13, 9-(3-Cyanopropoxy)-6-isobutyl-10-methoxy-2-oxo-7H-pyrido[2,1-a]phthalazine-3-carboxylic acid]",6.96
4,"COCCCOc1cc2c(cc1OC)-c1cc(=O)c(C(=O)O)cn1N(CC(C)C)C2 [Example 6, 6-Isobutyl-10-methoxy-9-(3-methoxypropoxy)-2-oxo-7H-pyrido[2,1-a]phthalazine-3-carboxylic acid]",7.28
5,"COc1cc2c(cc1OCCCS(C)(=O)=O)CN(CC(C)C)n1cc(C(=O)O)c(=O)cc1-2 [Example 9, 6-Isobutyl-10-methoxy-9-(3-methylsulfonylpropoxy)-2-oxo-7H-pyrido[2,1-a]phthalazine-3-carboxylic acid]",6.20
6,"COc1cc2c(cc1OCCCCCN)CN(CC(C)C)n1cc(C(=O)O)c(=O)cc1-2 [Example 15, 9-(5-Aminopentoxy)-6-isobutyl-10-methoxy-2-oxo-7H-pyrido[2,1-a]phthalazine-3-carboxylic acid hydrochloride]",6.30
7,"COc1cc2c(cc1OCCN1CCOCC1)CN(CC(C)C)n1cc(C(=O)O)c(=O)cc1-2 [Example 10, 6-Isobutyl-10-methoxy-9-(2-morpholinoethoxy)-2-oxo-7H-pyrido[2,1-a]phthalazine-3-carboxylic acid]",6.65
8,"COc1cc2c(cc1OCC1CCOCC1)CN(CC(C)C)n1cc(C(=O)O)c(=O)cc1-2 [Example 8, 6-Isobutyl-10-methoxy-2-oxo-9-(tetrahydropyran-4-ylmethoxy)-7H-pyrido[2,1-a]phthalazine-3-carboxylic acid]",7.36
9,"COc1cc2c(cc1OCC(F)(F)F)CN(CC(C)C)n1cc(C(=O)O)c(=O)cc1-2 [Example 7, 6-Isobutyl-10-methoxy-2-oxo-9-(2,2,2-trifluoroethoxy)-7H-pyrido[2,1-a]phthalazine-3-carboxylic acid]",6.76
10,"C=CCN1Cc2cc(OC)c(OC)cc2-c2cc(=O)c(C(=O)O)cn21 [Example 3, 6-Allyl-9,10-dimethoxy-2-oxo-7H-pyrido[2,1-a]phthalazine-3-carboxylic acid]",6.13
11,"COc1cc2c(cc1OCCCCC(=O)O)CN(CC(C)C)n1cc(C(=O)O)c(=O)cc1-2 [Example 12, 9-(4-Carboxybutoxy)-6-isobutyl-10-methoxy-2-oxo-7H-pyrido[2,1-a]phthalazine-3-carboxylic acid]",5.03
12,"COc1cc2c(cc1OCC(C)(C)CO)CN(CC(C)C)n1cc(C(=O)O)c(=O)cc1-2 [Example 11, 9-(3-Hydroxy-2,2-dimethyl-propoxy)-6-isobutyl-10-methoxy-2-oxo-7H-pyrido[2,1-a]phthalazine-3-carboxylic acid]",7.41
13,"COc1cc2c(cc1OC)-c1cc(=O)c(C(=O)O)cn1NC2 [Example 1, 9,10-Dimethoxy-2-oxo-6,7-dihydropyrido[2,1-a]phthalazine-3-carboxylic acid]",4.73
14,"COc1cc2c(cc1OC)-c1cc(=O)c(C(=O)O)cn1N(CC(C)C)C2 [Example 5, 6-Isobutyl-9,10-dimethoxy-2-oxo-7H-pyrido[2,1-a]phthalazine-3-carboxylic acid]",6.61
15,"COc1cc2c(cc1OCCCCCNC(=O)OC(C)(C)C)CN(CC(C)C)n1cc(C(=O)O)c(=O)cc1-2 [Example 14, 9-[5-(Tert-butoxycarbonylamino)pentoxy]-6-isobutyl-10-methoxy-2-oxo-7H-pyrido[2,1-a]phthalazine-3-carboxylic acid]",7.33
